Test results reported in patent US4760136A, “Chartreusin derivatives and salts thereof” (Ishihara Sangyo Kaisha, Ltd., priority 1984, dated 1988).

Experiments:
P-388 leukemia cells = assay: Antitumor activity: P-388 leukemia cells inoculated intraperitoneally, drug administered intravenously, BDF1 mice; assay type: in vivo; settings: Mus musculus, P388, iv, BDF1 mice, P-388 i.p., read-out: T/C (%) of MST; for response vs control in vivo at 40 mg/kg: dose c: 40 mg/kg × 3, i.v. on days 1, 5 and 9; for response vs control in vivo at 80 mg/kg: dose f: 80 mg/kg × 3, i.v. on days 1, 5 and 9; for response vs control in vivo at 20 mg/kg: dose b: 20 mg/kg × 3, i.v. on days 1, 5 and 9
Method in brief: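 Drug dosing was intravenous on the first, fifth and ninth days after intraperitoneal inoculation of P-388 leukemia cells (1×10^6 per mouse) into BDF1 mice. Vehicles were physiological saline alone, or saline with small amounts of sodium carboxymethyl cellulose or Tween-80.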

[1] = Acute toxicity, intravenous (once), ddY mice; assay type: in vivo; settings: mouse, in vivo, iv, formulated per Preparation Example
From the text: In Table 7 are shown acute toxicity values (LD50, mg/kg) in ddY mice in the case of intravenously administering (once) each of the compounds of this invention in the form of preparations shown in the Preparation Examples shown in Table 7.

| Structure (SMILES) | response vs control in vivo at 40 mg/kg (P-388 leukemia cells) [%] | response vs control in vivo at 80 mg/kg (P-388 leukemia cells) [%] | LD50 [1] [mg/kg] | response vs control in vivo at 20 mg/kg (P-388 leukemia cells) [%] | response vs control in vivo at 10 mg/kg (P-388 leukemia cells; dose a: 10 mg/kg × 3, i.v. on days 1, 5 and 9) [%] |
| --- | --- | --- | --- | --- | --- |
| C/C=C(\C)C(=O)Oc1c2cccc(OC3OC(C)C4OC(C)(C)OC4C3OC3OC(C)C(O)C(OC)C3O)c2c2oc(=O)c3c(C)ccc4oc(=O)c1c2c43 (stereo not shown) [Compound No. 173] | 152 | 192 | ≥ 80 | – | – |
| COC1C(O)C(C)OC(OC2C(Oc3cccc4c(OC(=O)COC(C)=O)c5c(=O)oc6ccc(C)c7c(=O)oc(c34)c5c67)OC(C)C3OC(c4ccccc4)OC32)C1O (stereo not shown) [Compound No. 148] | 250 | – | ≥ 40 | 185 | – |
| CO[C@H]1[C@@H](O)[C@@H](C)O[C@H](O[C@H]2[C@H](Oc3cccc4c(OC(=O)[C@@H](NC(=O)CNC(=O)CN)C(C)C)c5c(=O)oc6ccc(C)c7c(=O)oc(c34)c5c67)O[C@H](C)[C@@H]3OC(c4ccccc4)O[C@@H]32)[C@@H]1O (stereo partly shown) [compound 36, 6-O-(glycyl-glycyl-valyl)-3',4'-O-benzylidene-chartreusin phosphate] | – | – | ≥ 40 | 157 | 135 |
| COc1ccc(C2OC3C(C)OC(Oc4cccc5c(OC(=O)CCNC(=O)c6ccccc6)c6c(=O)oc7ccc(C)c8c(=O)oc(c45)c6c78)C(OC4OC(C)C(O)C(OC)C4O)C3O2)cc1 (stereo not shown) [compound 96] | 162 | – | ≥ 40 | – | – |
| COC1C(O)C(C)OC(OC2C(Oc3cccc4c(OC(=O)C(Cc5ccccc5)NC(=O)OCc5ccccc5)c5c(=O)oc6ccc(C)c7c(=O)oc(c34)c5c67)OC(C)C3OC(c4ccc(Cl)cc4)OC32)C1O (stereo not shown) [compound 127] | – | – | ≥ 40 | 130 | – |
| COC1C(O)C(C)OC(OC2C(Oc3cccc4c(OC(=O)c5ccccc5)c5c(=O)oc6ccc(C)c7c(=O)oc(c34)c5c67)OC(C)C3OC(C)(C)OC32)C1O (stereo not shown) [compound 242] | – | – | ≥ 40 | 137 | – |
| COC1C(O)C(C)OC(OC2C(Oc3cccc4c(OC(=O)C(CC[S+](C)[O-])NC(=O)OCc5ccccc5)c5c(=O)oc6ccc(C)c7c(=O)oc(c34)c5c67)OC(C)C3OC(c4ccccc4)OC32)C1O (stereo not shown) [Compound No. 79, 6-O-(N-Carbobenzyloxy-S-Oxomethionyl)-3',4'-O-Benzylidene-Chartreusin] | 179 | – | ≥ 40 | – | – |
| COC1C(O)C(C)OC(OC2C(Oc3cccc4c(OC(=O)CCNC(=O)c5ccccc5)c5c(=O)oc6ccc(C)c7c(=O)oc(c34)c5c67)OC(C)C3OC(c4ccccc4)OC32)C1O (stereo not shown) [Compound No. 23] | 233 | – | ≥ 40 | 205 | – |
| COC1C(O)C(C)OC(OC2C(Oc3cccc4c(OC(=O)CCNC(C)=O)c5c(=O)oc6ccc(C)c7c(=O)oc(c34)c5c67)OC(C)C3OC(c4cccc(C(F)(F)F)c4)OC32)C1O (stereo not shown) [Compound No. 53] | 165 | 239 | ≥ 80 | – | – |
| COC1C(O)C(C)OC(OC2C(Oc3cccc4c(OC(=O)CCN5CCCC5)c5c(=O)oc6ccc(C)c7c(=O)oc(c34)c5c67)OC(C)C3OC(c4ccccc4)OC32)C1O (stereo not shown) [Compound No. 9] | 292 | – | ≥ 40 | 165 | – |
| COC1C(O)C(C)OC(OC2C(Oc3cccc4c(OC(=O)CC(C)CC(C)(C)C)c5c(=O)oc6ccc(C)c7c(=O)oc(c34)c5c67)OC(C)C3OC(c4ccccc4)OC32)C1O (stereo not shown) [Compound No. 236, 6-O-(3,5,5-Trimethyl-n-Hexanoyl)-3',4'-O-Benzylidene-Chartreusin] | 145 | – | ≥ 80 | – | – |
| COC1C(O)C(C)OC(OC2C(Oc3cccc4c(OC(=O)CCNC(=O)c5ccccc5)c5c(=O)oc6ccc(C)c7c(=O)oc(c34)c5c67)OC(C)C3OC(c4ccc(Br)cc4)OC32)C1O (stereo not shown) [compound 123] | 135 | – | ≥ 40 | – | – |
| COC1C(O)C(C)OC(OC2C(Oc3cccc4c(OC(=O)CNC(=O)CNC(=O)CN)c5c(=O)oc6ccc(C)c7c(=O)oc(c34)c5c67)OC(C)C3OC(c4ccccc4)OC32)C1O (stereo not shown) [Compound No. 11] | – | – | ≥ 40 | 186 | – |
| COC1C(O)C(C)OC(OC2C(Oc3cccc4c(OC(=O)C(Cc5c[nH]c6ccccc56)NC(=O)OCc5ccccc5)c5c(=O)oc6ccc(C)c7c(=O)oc(c34)c5c67)OC(C)C3OC4(CCCCC4)OC32)C1O (stereo not shown) [compound 133] | – | 139 | ≥ 100 | – | – |
| COC1C(O)C(C)OC(OC2C(Oc3cccc4c(OC(=O)CSc5ccccc5)c5c(=O)oc6ccc(C)c7c(=O)oc(c34)c5c67)OC(C)C3OC(C)(C)OC32)C1O (stereo not shown) [Compound No. 174] | 148 | 198 | ≥ 80 | – | – |
